Series [1] relates to Zn^+2 in fibrosarcoma cells. Description: Imaging of Zn^+2 in fibrosarcoma cells. It is filed as cell-based. Conditions: added to any of the wells with phosphonate and zinc.

Counter-ions that a name gives are not always drawn.

For the compound `Cc1cc(=O)oc2cc(OCP(=O)(O)O)ccc12` [di-sodium salt of Example 5, 4-methylcoumarin 7-oxymethylphosphonic acid], the uptake into cells result with Fibrosarcoma cells is on record as “taken up in the cytoplasm within the fibrosarcoma cells”.

On to `O=P([O-])([O-])Cn1c2ccccc2c2ccccc21.[Na+].[Na+]` [di sodium N-carbazolylmethylphosphonate], for which the “penetration of brain cell types and regions” value in the series on Slices of rat brain was “went into the endothelial and neuronal cells”. Further, the uptake into cells entry in the series on Fibrosarcoma cells is “taken up in the cytoplasm within the fibrosarcoma cells”.

Take `CCOP(=O)(COc1ccc2c(c1)[nH]c1ccccc12)OCC` [Example 8, diethyl-2-carbazolyloxymethylphosphonate]: the melting point was 159 °C. In the series with Fibrosarcoma cells, the uptake into cells result is “taken up in the cytoplasm within the fibrosarcoma cells”.

For `O=P(O)(O)COc1ccc2c(c1)[nH]c1ccccc12` [Example 9, 2-carbazolyloxymethyl phosphonic acid], the melting point is 291 °C.

As for `c1ccc(CN(CCN(Cc2ccccn2)Cc2ccccn2)Cc2ccccn2)nc1` [TPEN, N,N,N′,N′-tetrakis(2-pyridylmethyl)ethylenediamine], the “effect of excess chelator on the cell fluorescence” value in series [1] is “very significant quenching of the fluorescence”.

`O=P(O)(O)COc1cccc2cccnc12` (as salt: salt) [Example 2, 8-quinolyloxy methylphosphonic acid] came in with a melting point of 285 to 288 °C.

The melting point is the temperature, or range, at which the solid turns liquid.

The record behind these values is patent US7629379B2, “Substituted phosphonate fluorescent sensors and use thereof” (Queen Mary & Westfield College, priority 2003, dated 2009).
